Active and inactive are the calls of the source. No cut-off for these calls is given here.

One data set has as its target Ezrin (Homo sapiens) (UniProt P15311). In words: Inhibition of ezrin phosphorylation in human DLD1 cells assessed as increase in alpha-ERM-Thr567 phosphorylation at 10 to 40 uM after 15 hrs by chemiluminescence method. It counts as cell-based. Conditions: DLD-1.
Data set [1] concerns the target T1, Protein tyrosine phosphatase type IVA 3 (Homo sapiens, UniProt O75365). In words: Inhibition of PRL-3-mediated cell invasion in human DLD1 cells at 40 uM after 20 hrs using crystal violet staining by Matrigel invasion assay. It counts as cell-based. Conditions: DLD-1.
Data set [2] addresses T1, Protein tyrosine phosphatase type IVA 3. In words: Inhibition of PRL-3-mediated cell invasion in human DLD1 cells after 20 hrs using crystal violet staining by Matrigel invasion assay. It counts as cell-based. Conditions: DLD-1.
Data set [3] shares this target. The data set can be described thus: Inhibition of PRL3-mediated ezrin phosphorylation in human DLD1 cells assessed as increase in alpha-ERM-Thr567 phosphorylation at 10 to 40 uM after 15 hrs by chemiluminescence method relative to control. It counts as cell-based. Conditions: DLD-1.
Data set [4] shares this target. The data set can be described thus: Inhibition of PRL3 after 1 hr by DiFMUP assay.
For data set [5] the target is unchanged. The data set can be described thus: Inhibition of PRL-3-mediated cell migration in human DLD1 cells at 40 uM after 15 hrs by crystal violet staining based microscopic assay. The note with it: DLD-1.
The target is the same in data set [6]. In words: Inhibition of PRL-3-mediated cell migration in human DLD1 cells after 15 hrs by crystal violet staining based microscopic assay. Conditions: DLD-1.
Another data set relates to DLD-1. The data set can be described thus: Cytotoxicity against human DLD1 cells expressing PRL-3 assessed as inhibition of cell proliferation up to 50 uM after 24 hrs by WST-1 assay. It counts as cell-based. Conditions: dld-1, 24 h.

T1 sequence (O75365 whole entry): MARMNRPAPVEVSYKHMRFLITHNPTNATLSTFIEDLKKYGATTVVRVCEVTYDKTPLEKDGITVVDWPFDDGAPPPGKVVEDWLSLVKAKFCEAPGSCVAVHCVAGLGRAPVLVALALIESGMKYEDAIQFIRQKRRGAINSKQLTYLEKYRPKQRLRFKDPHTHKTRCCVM
Sequence of Ezrin (Homo sapiens) (P15311 whole entry): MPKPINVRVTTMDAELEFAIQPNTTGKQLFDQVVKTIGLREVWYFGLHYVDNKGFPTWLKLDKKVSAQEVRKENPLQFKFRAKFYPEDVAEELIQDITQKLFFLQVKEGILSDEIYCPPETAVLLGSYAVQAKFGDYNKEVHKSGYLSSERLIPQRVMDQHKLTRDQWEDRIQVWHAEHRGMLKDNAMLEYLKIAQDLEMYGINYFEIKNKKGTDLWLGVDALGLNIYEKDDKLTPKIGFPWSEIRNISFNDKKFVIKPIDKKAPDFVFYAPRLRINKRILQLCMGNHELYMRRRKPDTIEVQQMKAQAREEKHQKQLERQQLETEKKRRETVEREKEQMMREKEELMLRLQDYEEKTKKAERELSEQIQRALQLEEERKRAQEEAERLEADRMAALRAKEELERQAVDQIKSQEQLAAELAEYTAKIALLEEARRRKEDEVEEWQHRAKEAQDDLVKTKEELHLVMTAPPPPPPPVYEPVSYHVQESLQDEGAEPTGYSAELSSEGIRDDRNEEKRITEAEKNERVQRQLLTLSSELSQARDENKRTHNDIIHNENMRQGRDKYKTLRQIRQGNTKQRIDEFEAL

Consider `Cc1cc(O)c2c(c1)C(=O)c1cc(O)cc(O)c1C2=O` [EMODIN], for which, at Ezrin (Homo sapiens), the inhibition result was “inactive”. Also, the inhibition was 70% in data set [1]; “Dose-dependent effect” in data set [2]; “Dose-dependent effect” in data set [4]; above 80% in data set [5]; “Dose-dependent effect” in data set [6]. In addition, in data set [3], the inhibition result was “Active”. In data set [4], this compound came in with a half-inhibitory concentration (IC50) of 3.5 µM. In the data set on DLD-1, the Activity result is on record as “Non-toxic”.

As usually defined, the inhibition is the change of the read-out against control, counted positive when it falls. The term IC50 denotes the concentration at which inhibition is half-maximal. Higher therefore signals weaker potency in that assay.

(Values after ChEMBL document CHEMBL1932947, “Emodin inhibits migration and invasion of DLD-1 (PRL-3) cells via inhibition of PRL-3 phosphatase activity” (Bioorg Med Chem Lett, 2012).)
